Measured values from patent US5436269A, “Method for treating hepatitis” (Sagami Chemical Research Center, priority 1991, dated 1995).

Legend:
fulminant hepatitis = assay: Survival of model rats with induced fulminant hepatitis (D-galactosamine hydrochloride and lipopolysaccharide); type: in vivo, Wister rats
Protocol: Male Wister rats of 200 g weight were processed to be model animals for inducing hepatitis. Namely, 1500 mg/kg-weight of D-galactosamine hydrochloride was intestinally administrated and, at the same time, 10 μg of lipopolysaccharide derived from E. coli 0111:B4 was injected intravenously.

in vivo = assay: in vivo; design: species or system ddy-N mice; settings: mouse
Protocol: Acute toxicity of ethyl docosahexaenoate was tested.
Tested animal: ddy-N mice, 5-week age, 5 male and 5 female
All tested mice were anatomically evaluated after the test.

Row | SMILES | model rats survived more than 24 hours (fulminant hepatitis; emulsion containing 10% of 99% pure DHA triglyceride, simultaneous with hepatitis inducer) | induction of hepatitis (fulminant hepatitis; model rats, result in words) | rats survived (fulminant hepatitis; emulsion of ethyl ester of 99% pure DHA, same experiment as Example 2, control rats died within 24 hours) | LD50 (in vivo)
1 | CC/C=C\C/C=C\C/C=C\C/C=C\C/C=C\C/C=C\CCC(=O)OCC(COC(=O)CC/C=C\C/C=C\C/C=C\C/C=C\C/C=C\C/C=C\CC)OC(=O)CC/C=C\C/C=C\C/C=C\C/C=C\C/C=C\C/C=C\CC [DHA triglyceride] | 67% | inhibits the induction of hepatitis | – | –
2 | CC/C=C\C/C=C\C/C=C\C/C=C\C/C=C\C/C=C\CCC(=O)OCC [ethyl docosahexaenoate] | – | – | 75% | > 2000 mg/kg
